From US11179465B2, “Topical compositions comprising a corticosteroid” (PRIMUS PHARMACEUTICALS, INC., priority 2014, dated 2021)

How the values were obtained:
[1] = Plasma concentrations of clobetasol propionate (PK blood samples); type: in vivo, human
Method: These investigational products were applied twice daily to all affected areas on the body excluding face, scalp, groin, axillae and other intertriginous areas. The subjects had 20 to 50% BSA treated to achieve maximal use exposure. The subjects were visited Screening, Baseline (Day 1), Day 8, Day 15 and Day 43 (if needed to confirm recovery). Clinical determinations of disease severity was conducted using the Investigator Global Assessment (IGA) for overall severity at each visit. Subjects were tested for HPA axis function using the ACTH stimulation test (i.e., a cosyntropin i.v. or i.m. injection) at the Screening Visit (at least 14 days and no more than 28 days prior to Baseline) and at Day 15. In addition, blood samples for serum dehydroepiandrosterone sulfate (DHEAS) was taken at Screening, on Day 8 and at the time of the ACTH stimulation test on Day 15 (pre-test sample) as a secondary measure of HPA axis suppression. At the time of the screening ACTH stimulation test, a PK blood sample was taken to obtain a baseline value (PK screening sample). On Day 15, subjects were applied the last dose of study product at the clinic up to 60 minutes after a pre-treatment PK blood sample was taken (0 hour-Day 15). PK blood samples was then collected at 1, 3 and 6 hours (±5 minutes) after application of the study product.
Subjects had applied study product to all affected areas except the face, scalp, groin, axillae and other intertriginous areas. The target dose was at least 5 to 7 g per day (1 teaspoon of cream, twice daily, applied at approximately 1 mg/cm2 on 20% BSA—3000 cm2). All baseline affected areas and newly affected areas have been treated until the end of the study even if cleared. The investigator had marked the affected areas (in the source document), updated the marking at each visit, and reminded the subjects where study product was to be applied at each visit using the marking. Study product have been applied directly onto affected areas and rubbed in gently and completely. Study product have been applied after bathing, if applicable.

HPA axis = conditions: topical; cited from earlier work
[2] = Average of Post-Treatment, subjects With HPA Axis Suppression
[3] = Average of Post-Treatment, subjects Without HPA Axis Suppression
[4] = Day 15: 1 Hour, subjects With HPA Axis Suppression
[5] = Day 15: 1 Hour, subjects Without HPA Axis Suppression
[6] = Day 15: 3 Hours, subjects With HPA Axis Suppression
[7] = Day 15: 3 Hours, subjects Without HPA Axis Suppression
[8] = Day 15: 6 Hours, subjects With HPA Axis Suppression
[9] = Day 15: 6 Hours, subjects Without HPA Axis Suppression
[10] = Day 15: Pre-Treatment (0 hour), subjects With HPA Axis Suppression
[11] = Day 15: Pre-Treatment (0 hour), subjects Without HPA Axis Suppression
[12] = Screening, subjects With HPA Axis Suppression (both creams pooled)
[13] = Screening, subjects Without HPA Axis Suppression (both creams pooled)

Plasma Concentration of Clobetasol Propionate, Mean ± SD [1, 2]: 0.217123 ± 0.1537979 ng/mL | Plasma Concentration of Clobetasol Propionate, Median [1, 2]: 0.185565 ng/mL | Plasma Concentration of Clobetasol Propionate, Mean ± SD [1, 3]: 0.071244 ± 0.1060424 ng/mL | Plasma Concentration of Clobetasol Propionate, Median [1, 3]: 0.03174 ng/mL | Plasma Concentration of Clobetasol Propionate, Mean ± SD [1, 4]: 0.210873 ± 0.1962904 ng/mL | Plasma Concentration of Clobetasol Propionate, Median [1, 4]: 0.15588 ng/mL | Plasma Concentration of Clobetasol Propionate, Mean ± SD [1, 5]: 0.081012 ± 0.1512306 ng/mL | Plasma Concentration of Clobetasol Propionate, Median [1, 5]: 0.03173 ng/mL | Plasma Concentration of Clobetasol Propionate, Mean ± SD [1, 6]: 0.200668 ± 0.1260445 ng/mL | Plasma Concentration of Clobetasol Propionate, Median [1, 6]: 0.19545 ng/mL | Plasma Concentration of Clobetasol Propionate, Mean ± SD [1, 7]: 0.067637 ± 0.1039073 ng/mL | Plasma Concentration of Clobetasol Propionate, Median [1, 7]: 0.033185 ng/mL | Plasma Concentration of Clobetasol Propionate, Mean ± SD [1, 8]: 0.205386 ± 0.1474279 ng/mL | Plasma Concentration of Clobetasol Propionate, Median [1, 8]: 0.17805 ng/mL | Plasma Concentration of Clobetasol Propionate, Mean ± SD [1, 9]: 0.065451 ± 0.0915422 ng/mL | Plasma Concentration of Clobetasol Propionate, Median [1, 9]: 0.03626 ng/mL | Plasma Concentration of Clobetasol Propionate, Mean ± SD [1, 10]: 0.195691 ± 0.1507514 ng/mL | Plasma Concentration of Clobetasol Propionate, Median [1, 10]: 0.13649 ng/mL | Plasma Concentration of Clobetasol Propionate, Mean ± SD [1, 11]: 0.055406 ± 0.1003403 ng/mL | Plasma Concentration of Clobetasol Propionate, Median [1, 11]: 0.02623 ng/mL | Plasma Concentration of Clobetasol Propionate, Mean ± SD [1, 12]: 0 ± 0 ng/mL | Plasma Concentration of Clobetasol Propionate, Median [1, 12]: 0 ng/mL | Plasma Concentration of Clobetasol Propionate, Mean ± SD [1, 13]: 0.001282 ± 0.0075844 ng/mL | Plasma Concentration of Clobetasol Propionate, Median [1, 13]: 0 ng/mL | Mean plasma clobetasol levels, subjects with HPA axis suppression relative to those without ([1]; Table 8, both creams pooled): more than 3 times
Compound: CCC(=O)O[C@]1(C(=O)CCl)[C@@H](C)C[C@H]2[C@@H]3CCC4=CC(=O)C=C[C@]4(C)[C@@]3(F)[C@@H](O)C[C@@]21C [Clobetasol Propionate, [17-(2′-chloroacetyl)-9-fluoro-11-hydroxy-10,13,16-trimethyl-3-oxo-6,7,8,11,12,14,15,16-octahydrocyclopenta[a]phenanthren-17-yl] propanoate]
Lowest dose at which the HPA axis is suppressed (HPA axis): 2 grams per day
